Results from patent US5972636A (priority 1997, dated 1999).
Like-named read-outs stand apart in the source and are kept apart here.

Legend:
[1] = system: new protease (multipain) from skeletal muscle; conditions: for effect of nucleotides on Ub-125I-lysozyme hydrolysis by the purified enzyme, in words / Relative activity (%), degradation of Ub-125I-lysozyme by the new activity: Table III; for Relative activity (%), degradation of Ub-125I-lysozyme by the new activity: 2 mM of the nucleotides or 10 mM PPi, 37° C. 1 hour; for Relative activity (%) NEW […] Ub-lysozyme / Relative activity (%) NEW […] OH/O2 - treated hemoglobin / Relative activity (%) NEW […] lysozyme: Table IV, 37° C. 1 h; for Relative activity (%) NEW […] Ub-lysozyme: DFP 1 mM, Cystatin A 4 uM, Hemin 0.1 mM, NEM 1 mM, Leupeptin 0.1 mM, E64 0.1 mM, NaOleate 0.125 mM, SDS 0.01%, o-Phenanthroline 0.1 mM; for Relative activity (%) NEW […] OH/O2 - treated hemoglobin / Relative activity (%) NEW […] lysozyme: concentrations as in E1
[2] = system: 1500 kDa complex (proteasome-multipain); conditions: for effect of nucleotides on Ub-125I-lysozyme hydrolysis by the complex, in words / Realtive Activity (%) Complex, Ub-lysozyme degradation: Table VIII; for Realtive Activity (%) Complex, Ub-lysozyme degradation: 2 mM of the nucleotide or 10 mM PPi
[3] = system: proteasome-multipain complex formation; assay type: biochemical, rabbit; conditions: DFP 1 mM or cystatin 4 μM preincubated 10 min; AMP-PNP in place of ATP
[4] = system: ATP-ubiquitin-dependent proteolytic system; assay: ATP-ubiquitin-activated proteolysis in extracts (Fraction II) of psoas muscle; assay type: biochemical, rabbit
Text: Psoas muscles from fed and fasted rabbits were used to obtain sufficient material for assay of the ATP-dependent system in cell-free extracts. Fasted rabbits were deprived of food for sufficient time to cause a weight loss of about 20% (similar to that seen in rats deprived of food for 1 day). The animals were anesthesized, and their psoas muscles dissected and homogenized as described previously. Fagan, J. M., et al., J. Biol. Chem., 261: 5705-5713 (1986).
After centrifugation at 10,000×g and then at 100,000×g, the muscle extracts were fractionated on DE52 cellulose to remove ubiquitin and most cell proteins, as described previously. Han, H. Q. et al., Federation Proc, 2:A564 (1988) and Waxman, L., et al., J. Biol. Chem., 262:2451-2457 (1987). The fraction containing the ATP-ubiquitin-dependent proteolytic system (Herskho, A., J. Biol. Chem., 263:15237-15240 (1988); Rechsteiner, M., Ann. Rev. Cell Biol., 3:1-30 (1987) and Fagan, J. M., et al. Biochem J., 243:335-343 (1987)) was eluted with 0.5M NaCl ("Fraction II"), dialyzed against a buffer containing Tris (50 mM, pH7.8), dithiothreitol (1 mM), and 20% glycerol, and concentrated before assay of activity. Degradation of endogenous muscle proteins was assayed by measuring the production of free tyrosine, which was determined fluorometrically after precipitation of proteins with trichloroacetic acid. Tischler, M. et al., J. Biol, Chem., 257:1613-1621 (1982) and Fulks, R., et al., J. Biol. Chem., 250:290-298 (1975). In addition, the degradation of ^14 C-casein was assayed by measuring the production of acid-soluble radioactivity. Waxman, L., et al., J. Biol. Chem., 262:2451-2457 (1987) and Fagan, J. M., Biochem J., 243:335-343 (1987).

[5] = biological target: T1, proteasome from skeletal muscle (Oryctolagus cuniculus, UniProt G1T4Q9); assay type: biochemical, rabbit
T1 construct: from tissue; host or cells: rabbit skeletal (psoas) muscle, proteasome fraction after Mono Q and Superose 6

[6] = Table VII, substrate Ub-125I-lysozyme, None = 100, 2 mM ATP, concentrations as in E5
[7] = Table VII, None = 100, 2 mM ATP, DFP 1 mM, Cystatin 4 μM, NEM 1 mM, Leupeptin 100 μM, E-64 100 μM, Sodium oleate 125 μM, SDS 0.01%, o-Phenanthroline 100 μM

| Molecule | Relative activity (%), degradation of Ub-125I-lysozyme by the new activity ([1]; None = 100) [%] | Realtive Activity (%) Complex, Ub-lysozyme degradation ([2]; None = 100) [%] | Relative activity (%) NEW […] Ub-lysozyme ([1]; None = 100, 2 mM ATP) [%] | Relative activity (%) NEW […] OH/O2 - treated hemoglobin ([1]; None = 100, 2 mM ATP) [%] | Relative activity (%) NEW […] lysozyme ([1]; None = 100, 2 mM ATP) [%] | Realtive Activity (%) Proteasome (sLLVT-MCA) [5] [%] | Relative activity (%) […]-MCA [5] [%] | further results |
| --- | --- | --- | --- | --- | --- | --- | --- | --- |
| Nc1ncnc2c1ncn2[C@@H]1O[C@H](COP(=O)(O)OP(=O)(O)O)[C@@H](O)[C@H]1O [ADP] | 113 | 146 | – | – | – | – | – | effect of nucleotides on Ub-125I-lysozyme hydrolysis by the purified enzyme, in words [1]: no significant effect; effect of nucleotides on Ub-125I-lysozyme hydrolysis by the complex, in words [2]: no significant effect |
| Nc1ncnc2c1ncn2[C@@H]1O[C@H](COP(=O)(O)O)[C@@H](O)[C@H]1O [AMP] | 130 | 99 | – | – | – | – | – | effect of nucleotides on Ub-125I-lysozyme hydrolysis by the purified enzyme, in words [1]: no significant effect; effect of nucleotides on Ub-125I-lysozyme hydrolysis by the complex, in words [2]: no significant effect |
| Nc1ncnc2c1ncn2[C@@H]1O[C@H](COP(=O)(O)OP(=O)(O)OP(O)(O)=S)[C@@H](O)[C@H]1O [ATP-γ-S, adenosine 5'-o-thiotriphosphate] | 103 | 135 | – | – | – | – | – | effect of nucleotides on Ub-125I-lysozyme hydrolysis by the purified enzyme, in words [1]: No stimulation; effect of nucleotides on Ub-125I-lysozyme hydrolysis by the complex, in words [2]: No stimulation |
| Nc1ncnc2c1ncn2[C@@H]1O[C@H](COP(=O)(O)OP(=O)(O)OP(=O)(O)O)[C@@H](O)[C@H]1O [ATP] | 743 | 458 | – | – | – | – | – | stimulation of Ub-lysozyme hydrolysis by the new protease ([1]; ATP 2 mM where stated, 60 min): 5 fold; stimulation of lysozyme degradation by the new protease ([1]; ATP 2 mM where stated, 60 min): 3 fold; Km ([1]; read-out: Km for ATP, multipain, Ub-conjugate degradation): ≤ 300 µM; effect on formation of the proteasome-multipain complex, in words [3]: allowed formation of a 1300 kDa complex; ATP concentration of maximal stimulation of conjugate degradation, 1500 kDa complex [2]: about 0.7 mM; stimulation of degradation of Ub-125I-lysozyme, 125I-lysozyme, sLLVT-MCA or casein by the complex ([2]; 1500 kda proteasome-multipain complex): 3-5 fold; Km ([2]; read-out: Km for ATP, 1500 kDa complex, Ub-conjugate degradation): ≤ 300 µM; 14C-Casein Hydrolysis [4]: 2.3 ± 0.2 ug casein hydrolyzed/1 hr; Hydrolysis of Endogenous Proteins ([4]; Fasted rabbits, No addition 2.0 ± 0.1, ATP 5 mM, ubiquitin 15 μM): 10.8 ± 2.1 nmol try released/2 hr; Hydrolysis of Endogenous Proteins ([4]; Fed rabbits, No addition 0.6 ± 0.1, ATP 5 mM, ubiquitin 15 μM): 5.7 ± 0.9 nmol try released/2 hr; 14C-Casein Hydrolysis ([4]; Fed rabbits, No addition 1.1 ± 0.2, ATP 5 mM, ubiquitin 15 μM): 1.5 ± 0.2 ug casein hydrolyzed/1 hr |
| Nc1ccn([C@@H]2O[C@H](COP(=O)(O)OP(=O)(O)OP(=O)(O)O)[C@@H](O)[C@H]2O)c(=O)n1 [CTP] | 373 | 410 | – | – | – | – | – | stimulation of Ub-lysozyme hydrolysis by the new protease ([1]; ATP 2 mM where stated, 60 min): ~4 fold |
| CC(C)C[C@H](NC(=O)[C@H]1O[C@@H]1C(=O)O)C(=O)NCCCCNC(=N)N [E64] | – | – | 100 | 100 | 100 | 100 | 100 | Realtive Activity (%) Multipain [1, 6]: 100%; effect on Ub-conjugate breakdown by the new protease (multipain), in words ([1]; text): not at all; effect on Ub-conjugate breakdown by the new protease (multipain), in words ([1]; text, listed as E-64): unable to inhibit multipain; effect on the complex, in words ([2]; Table VII): did not show any significant effect on the complex; Realtive Activity (%) Complex (Ub-125I-Lysozyme) [2, 7]: 96% |
| Nc1nc2c(ncn2[C@@H]2O[C@H](COP(=O)(O)OP(=O)(O)OP(=O)(O)O)[C@@H](O)[C@H]2O)c(=O)[nH]1 [GTP] | 435 | 326 | – | – | – | – | – | stimulation of Ub-lysozyme hydrolysis by the new protease ([1]; ATP 2 mM where stated, 60 min): ~4 fold |
| CC(=O)N[C@@H](CC(C)C)C(=O)N[C@@H](CC(C)C)C(=O)N[C@H](C=O)CCCNC(=N)N [Leupeptin] | – | – | 69 | 73 | 72 | 83 | 83 | Realtive Activity (%) Multipain [1, 6]: 69%; inhibition of Ub-conjugate breakdown by the new protease ([1]; cystatin B at concentrations similar to cystatin A): 30%; effect on the complex, in words ([2]; Table VII): did not show any significant effect on the complex; Realtive Activity (%) Complex (Ub-125I-Lysozyme) [2, 7]: 75% |
| CCN1C(=O)C=CC1=O [NEM, N-ethylmaleimide] | – | – | 29 | 30 | 27 | 37 | 37 | Realtive Activity (%) Multipain [1, 6]: 29%; effect on Ub-conjugate breakdown by the new protease (multipain), in words ([1]; text): strongly inhibited this activity; inhibition of conjugate breakdown by the complex ([2]; Table VII): 65%; Realtive Activity (%) Complex (Ub-125I-Lysozyme) [2, 7]: 33% |
| CCCCCCCC/C=C\CCCCCCCC(=O)[O-].[Na+] [NaOleate, Sodium oleate] | – | – | 29 | 40 | 34 | 179 | 179 | Realtive Activity (%) Multipain [1, 6]: 29%; Realtive Activity (%) Complex (Ub-125I-Lysozyme) [2, 7]: 38% |
| CCCCCCCCCCCCOS(=O)(=O)[O-].[Na+] [SDS, sodium dodecyl sulfate] | – | – | – | 42 | 46 | 125 | 125 | Realtive Activity (%) Multipain [1]: 44%; Relative activity (%) NEW PROTEASE Ub-lysozyme [1]: 44%; Realtive Activity (%) Complex (Ub-125I-Lysozyme) [2]: 46% |
| O=c1ccn([C@@H]2O[C@H](COP(=O)(O)OP(=O)(O)OP(=O)(O)O)[C@@H](O)[C@H]2O)c(=O)[nH]1 [UTP] | 108 | 174 | – | – | – | – | – | – |
| c1cnc2c(c1)ccc1cccnc12 [o-Phenanthroline] | – | – | 48 | 54 | 55 | 60 | 60 | Realtive Activity (%) Multipain [1, 6]: 48%; effect on Ub-conjugate breakdown by the new protease (multipain), in words ([1]; text): showed some inhibition; inhibition of conjugate breakdown by the complex ([2]; Table VII): about 60%; Realtive Activity (%) Complex (Ub-125I-Lysozyme) [2, 7]: 57% |
| CBZ-ala-arg-arg-CK | – | – | – | – | – | – | – | concentration that inactivates multipain [1]: 50 µM; concentration that inactivates the 1500 kDa complex [2]: 50 µM |
| Hemin | – | – | 0 | 7 | 0 | – | 0 | effect on Ub-conjugate breakdown by the new protease (multipain), in words ([1]; text): blocked conjugate-degrading activity; effect on Ub-conjugate breakdown by the new protease (multipain), in words ([1]; text, listed as hemin): is sensitive to |
| cystatin B (protein, UniProt P04080 1-98, looked up) Cystatin-B: MMCGAPSATQPATAETQHIADQVRSQLEEKENKKFPVFKAVSFKSQVVAGTNYFIKVHVGDEDFVHLRVFQSLPHENKPLTLSNYQTNKAKHDELTYF | – | – | – | – | – | – | – | inhibition of Ub-conjugate breakdown by the new protease [1]: 55% |
| cystatin C: member of the cystatin superfamily (protein, UniProt P01034 27-146, looked up) Cystatin-C: SSPGKPPRLVGGPMDASVEEEGVRRALDFAVGEYNKASNDMYHSRALQVVRARKQIVAGVNYFLDVELGRTTCTKTQPNLDNCPFHDQPHLKRKAFCSFQIYAVPWQGTMTLSKSTCQDA | – | – | – | – | – | – | – | effect on Ub-conjugate breakdown by the new protease (multipain), in words [1]: no significant effect |
